# Target: SOS1/KRAS WT (Homo sapiens (Human), UniProt Q07889)
# Assay: SOS1/KRAS WT HTRF binding assay (FRET-based protein-protein interaction)
# Conditions: inhibition of His6-SOS1 (aa564-1049, 40 nM) binding to GST-KRAS-WT (aa1-188, 40 nM); at least two independent replicates; read-out: SOS1/KRAS WT HTRF Binding assay pIC50 (converted)
# Description: The capacity of compounds to inhibit SOS1 binding to KRAS-WT (wild-type) was quantified using a FRET-based protein-protein interaction assay. The assay is based on the transfer of energy between two fluorophores, a donor and an acceptor, when in close proximity. In this instance, the donor is a Europium-conjugated α-GST antibody that binds to GST-tagged KRAS-WT, and the acceptor is an XL665-conjugated α-His 6 antibody that binds to His 6-tagged SOS1. Binding of SOS1 to KRAS-WT results in an increased fluorescent signal at emission wavelength of 665 nm which can be detected on the EnVision plate reader. Compounds that inhibit binding will reduce the 665 nm signal emitted. Recombinant KRAS-WT protein (40 nM; Human KRAS, aa1-188 recombinant protein with N-terminal GST-tag) and SOS1 protein (40 nM; Human SOS1 exchange domain, aa564-1049 with N-terminal 6His-tag) were mixed together in assay buffer (5 mM HEPES pH7.3, 150 mM NaCl, 10 mM EDTA, 5 mM MgCl2, 0.05% BSA, 0.0025% NP-40, 1 mM DTT and 100 mM KF) and incubated at room temperature with a dose response of compound in a 384-well low volume white plate and a final volume of 5 ul. After a 60 minute incubation, 5 ul of 4 nM anti-GST-Eu(K) (Cisbio, France) combined with 20 nM anti-6His-XL665 (Cisbio, France), diluted in assay buffer, was added to the plate. Following a further 4 hr incubation at room temperature, time-resolved fluorescence was measured on the EnVision plate reader. DMSO (0.05%) and 10 μM reference compound were used to generate the Max and Min assay signals, respectively. Data was analysed using a four-parameter logistic model to calculate IC50 values, with at least two independent replicates performed for each compound.
# Data was analyzed using a four-parameter logistic model to calculate IC50 values, with at least two independent replicates performed for each compound.
# SOS1/KRAS WT, sequence (Q07889 564-1049): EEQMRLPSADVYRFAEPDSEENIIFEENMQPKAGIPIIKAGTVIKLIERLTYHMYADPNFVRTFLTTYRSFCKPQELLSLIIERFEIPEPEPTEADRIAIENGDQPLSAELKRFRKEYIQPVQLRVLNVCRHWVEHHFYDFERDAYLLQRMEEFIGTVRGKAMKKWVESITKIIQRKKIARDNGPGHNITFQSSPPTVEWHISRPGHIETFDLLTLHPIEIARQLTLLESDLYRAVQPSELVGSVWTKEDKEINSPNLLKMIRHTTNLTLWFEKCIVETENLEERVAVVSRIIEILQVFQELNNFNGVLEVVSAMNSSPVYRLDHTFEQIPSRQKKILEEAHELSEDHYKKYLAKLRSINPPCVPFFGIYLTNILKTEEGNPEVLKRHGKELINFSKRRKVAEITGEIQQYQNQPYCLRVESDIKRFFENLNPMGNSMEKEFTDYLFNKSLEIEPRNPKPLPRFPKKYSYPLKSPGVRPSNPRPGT
row,SMILES,IC50
1,"Cc1nnc(NC(C)c2cccc(C(F)(F)F)c2)c2cc3c(cc12)n(C)c(=O)n3C1CCCC1 (centres unmarked) [Compound 1, 3-cyclopentyl-1,8-dimethyl-5-[1-[3-(trifluoromethyl)phenyl]-ethylamino]^− imidazo[4,5-g]phthalazin-2-one]",37.2 nM
2,"Cc1nnc(N[C@H](C)c2cccc(C(F)(F)F)c2)c2cc3c(cc12)n(C)c(=O)n3C1CCCC1 [Compound 2, 3-cyclopentyl-1,8-dimethyl-5-[[(1R)-1-[3-(trifluoromethyl)phenyl]ethyl]amino] imidazo[4,5-g]phthalazin-2-one]",13.2 nM
3,"Cc1nnc(N[C@H](C)c2cccc(C(F)(F)F)c2)c2cc3c(cc12)n(C)c(=O)n3C [Compound 3, 1,3,8-trimethyl-5-[[(1R)-1-[3-(trifluoromethyl)phenyl]ethyl]amino] imidazo[4,5-g]phthalazin-2-one]",20.9 nM
4,"Cc1nnc(N[C@H](C)c2cc(N)cc(C(F)(F)F)c2)c2cc3c(cc12)n(C)c(=O)n3C [Compound 4, 5-[[(1R)-1-[3-amino-5-(trifluoromethyl)phenyl]ethyl]amino]-1,3,8-trimethyl-imidazo[4,5-g]phthalazin-2-one]",17 nM
5,"Cc1nnc(N[C@H](C)c2cccc(C(F)F)c2)c2cc3c(cc12)n(C)c(=O)n3C [Compound 5, 5-[[(1R)-1-[3-(difluoromethyl)phenyl]ethyl]amino]-1,3,8-trimethyl-imidazo[4,5-g]phthalazin-2-one]",39.8 nM
6,"Cc1nnc(N[C@H](C)c2cccc(C(F)(F)CO)c2)c2cc3c(cc12)n(C)c(=O)n3C [Compound 6, 5-[[(1R)-1-[3-(1,1-difluoro-2-hydroxy-ethyl)phenyl]ethyl]amino]-1,3,8-trimethyl-imidazo[4,5-g]phthalazin-2-one]",18.6 nM
7,"Cc1nnc(N[C@H](C)c2cccc(C(F)(F)CO)c2F)c2cc3c(cc12)n(C)c(=O)n3C [Compound 7, 5-[[(1R)-1-[3-(1,1-difluoro-2-hydroxy-ethyl)-2-fluoro-phenyl]ethyl]amino]-1,3,8-trimethyl-imidazo[4,5-g]phthalazin-2-one]",17.4 nM
8,"COCCn1c(=O)n(C)c2cc3c(C)nnc(N[C@H](C)c4cccc(C(F)(F)F)c4)c3cc21 [Compound 8, 3-(2-methoxyethyl)-1,8-dimethyl-5-[[(1R)-1-[3-(trifluoromethyl)phenyl]ethyl]amino]imidazo[4,5-g]phthalazin-2-one]",12.6 nM
9,"CCn1c(=O)n(C)c2cc3c(C)nnc(N[C@H](C)c4cccc(C(F)(F)F)c4)c3cc21 [Compound 9, 3-ethyl-1,8-dimethyl-5-[[(1R)-1-[3-(trifluoromethyl)phenyl]ethyl]amino] imidazo[4,5-g]phthalazin-2-one]",12 nM
10,"Cc1c([C@@H](C)Nc2nnc(C)c3cc4c(cc23)n(C)c(=O)n4C)cccc1C(F)(F)CO [Compound 10, 5-[[(1R)-1-[3-(1,1-difluoro-2-hydroxy-ethyl)-2-methyl-phenyl]ethyl]amino]-1,3,8-trimethyl-imidazo[4,5-g]phthalazin-2-one]",9.12 nM
11,"Cc1nnc(N[C@H](C)c2cccc(C(F)(F)F)c2)c2cc3c(cc12)n(C)c(=O)n3CC(F)(F)F [Compound 11, 1,8-dimethyl-5-[[(1R)-1-[3-(trifluoromethyl)phenyl]ethyl]amino]-3-(2,2,2-trifluoroethyl)imidazo[4,5-g]phthalazin-2-one]",12 nM
12,"Cc1nnc(N[C@H](C)c2cccc(C(F)(F)F)c2)c2cc3c(cc12)n(C)c(=O)n3C(C)C [Compound 12, 3-isopropyl-1,8-dimethyl-5-[[(1R)-1-[3-(trifluoromethyl)phenyl]ethyl]amino]imidazo[4,5-g]phthalazin-2-one]",8.13 nM
13,"Cc1nnc(N[C@H](C)c2cccc(C(F)(F)F)c2)c2cc3c(cc12)n(C)c(=O)n3C1CC1 [Compound 13, 3-cyclopropyl-1,8-dimethyl-5-[[(1R)-1-[3-(trifluoromethyl)phenyl]ethyl]amino]imidazo[4,5-g]phthalazin-2-one]",11.5 nM
14,"Cc1nnc(N[C@H](C)c2cccc(C(F)(F)CO)c2)c2cc3c(cc12)n(C)c(=O)n3C(C)C [Compound 14, 3-isopropyl-1,8-dimethyl-5-[[(1R)-1-[3-(1,1-difluoro-2-hydroxy-ethyl)phenyl]ethyl]amino]imidazo [4,5-g]phthalazin-2-one]",7.59 nM
15,"Cc1nnc(N[C@H](C)c2cccc(C(F)(F)CO)c2F)c2cc3c(cc12)n(C)c(=O)n3C(C)C [Compound 15, 3-isopropyl-1,8-dimethyl-5-[[(1R)-1-[3-(1,1-difluoro-2-hydroxy-ethyl)-2-fluoro-phenyl]ethyl]amino]imidazo[4,5-g]phthalazin-2-one]",8.32 nM
16,"Cc1nnc(N[C@H](C)c2cccc(C(F)(F)C(C)(C)O)c2F)c2cc3c(cc12)n(C)c(=O)n3C [Compound 16, 1,3,8-trimethyl-5-[[(1R)-1-[3-(1,1-difluoro-2-hydroxy-2-methyl-propyl)-2-fluoro-phenyl]ethyl]amino]imidazo[4,5-g]phthalazin-2-one]",11.2 nM
17,"COCCn1c(=O)n(C)c2cc3c(N[C@H](C)c4cccc(C(F)(F)F)c4)nnc(C)c3cc21 [Compound 17, 1-(2-methoxyethyl)-3,8-dimethyl-5-[[(1R)-1-[3-(trifluoromethyl)phenyl]ethyl]amino] imidazo[4,5-g]phthalazin-2-one]",22.9 nM
18,"Cc1nnc(N[C@H](C)c2cccc(C(F)(F)F)c2)c2cc3c(cc12)n(C)c(=O)n3CC1CC1 [Compound 18, 3-(cyclopropylmethyl)-1,8-dimethyl-5-[[(1R)-1-[3-(trifluoromethyl)phenyl]ethyl]amino] imidazo[4,5-g]phthalazin-2-one]",23.4 nM
19,"CCn1c(=O)n(C)c2cc3c(C)nnc(N[C@H](C)c4cccc(C(F)(F)CO)c4F)c3cc21 [Compound 19, 3-ethyl-1,8-dimethyl-5-[[(1R)-1-[3-(1,1-difluoro-2-hydroxy-ethyl)-2-fluoro-phenyl]ethyl]amino]imidazo[4,5-g]phthalazin-2-one]",9.12 nM
20,"CCn1c(=O)n(C)c2cc3c(C)nnc(N[C@H](C)c4cccc(C(F)F)c4F)c3cc21 [Compound 20, 3-ethyl-1,8-dimethyl-5-[[(1R)-1-[3-(difluoromethyl)-2-fluoro-phenyl]ethyl]amino]imidazo[4,5-g]phthalazin-2-one]",10 nM
21,"Cc1nnc(N[C@H](C)c2cccc(C(F)(F)CO)c2F)c2cc3c(cc12)n(C)c(=O)n3C1CCC1 [Compound 21, 3-cyclobutyl-1,8-dimethyl-5-[[(1R)-1-[3-(1,1-difluoro-2-hydroxy-ethyl)-2-fluoro-phenyl]ethyl]amino]imidazo[4,5-g]phthalazin-2-one]",9.77 nM
22,"Cc1nnc(N[C@H](C)c2cccc(C(F)(F)F)c2)c2cc3c(cc12)n(C)c(=O)n3C1CCC1 [Compound 22, 3-cyclobutyl-1,8-dimethyl-5-[[(1R)-1-[3-(trifluoromethyl)phenyl]ethyl]amino] imidazo[4,5-g]phthalazin-2-one]",11.5 nM
23,"Cc1nnc(N[C@H](C)c2cccc(C(F)(F)F)c2)c2cc3c(cc12)OCC(=O)N3C [Compound 23, 4,9-dimethyl-6-[[(1R)-1-[3-(trifluoromethyl)phenyl]ethyl]amino]pyridazino[4,5-g][1,4]benzoxazin-3-one]",44.7 nM

# Source: patent US20250197407A1 (Jazz Pharmaceuticals Ireland Limited, priority 2022, published 2025)
